Test results from US5591715A, “Methods and compositions for reducing multidrug resistance” (priority 1995, dated 1997).
Converted amounts (≈) assume the structure as drawn.

How the values were obtained:
KB 8-5-11 cells [1] = assay: cells; assay type: cell-based; conditions: Homo sapiens, 1 h, Table V, read-out: MFI (T/U), treated cells/untreated cells; for fold induction at 100 µg/mL: KB8-5-11, 100 μg/ml
Source text: A series of PEG domains of average MW 600, 900 or 1500 was synthesized.

KB 8-5-11 cells [2] = assay: Relative RMA activity: percent KB 8-5-11 (MDR) cells showing rhodamine 123 fluorescence in the range of sensitive KB 3-1 cells; assay type: cell-based, human; conditions: Table V, none = 0.6
Experimental: Efflux of rhodamine 123 from MDR cells was also examined to provide direct information about the action of the transport protein Mdr 1. Enhanced accumulation of the P-gp substrate, rhodamine 123, in multidrug resistant KB 8-5-11 cells was used to measure RMA activity. Flow cytometric analysis was performed as described (Coon et al., 1991; Buckingham et al. 1995). Briefly, multidrug resistant KB 8-5-11 cells (0.5×10^6 cells/ml) were incubated with […] rhodamine 123 at 37° C. in the presence or absence of the putative RMA. After 60 min., mean intracellular steady state rhodamine 123 fluorescence was measured on an Epics Profile How Cytometer (Coulter, Hialeah, Fla.).
SOLUTOL® HS 15 was fractionated using reverse phase liquid chromatography to determine where the activity resides in the preparation. An approximately 50% solution of SOLUTOL® HS 15 was prepared in 100% acetonitrile (ACN) and water. One ml of the SOLUTOL® HS 15 solution was injected onto a Phenomenex IB-Sil reversed phase column. The column has 5 μm particles, and is 4.6 mm internal diameter by 150 mm. The flow rate was 2.0 ml/min. The mobile phase was as follows: A=5% ACN and B=100% ACN. The gradient was linear with 100% A to 100% B in 15 minutes, then was maintained at 100% B. Fractions were collected at 30 second intervals. The various fractions were assayed for RMA activity as described in Example III. […] 145-149, 1989.
The various fractions obtained from the reverse phase liquid chromatography were analyzed to determine the RMA activity in each fraction. The fractions were then analyzed by infrared spectrophotometry.
^a Percent cells KB85-11 (MDR) showing rhodamine 123 fluorescence in
the range of sensitive cell (KB31) in the same experiment.
CREMOPHOR® EL was fractionated by super critical extraction. Approximately 25 grams of CREMOPHOR® EL was thoroughly mixed with 20 grams of hydromatrix (silicon dioxide) manufactured by Varian--Harbor City, Calif. 40710 and loaded into a stainless steel high pressure extraction cell. The extraction cell was maintained at 40° C. Supercritical carbon dioxide was pumped into the extraction cell at a rate of approximately 3 liters of gaseous carbon dioxide per minute (4 ml of supercritical carbon dioxide per minute). The extractable material was dissolved under the extraction conditions, and separated from the matrix. The supercritical carbon dioxide solution with dissolved component was then depressurized to evaporate the carbon dioxide gas, and to precipitate the solute. […]
^a Percent KB 85-11 (MDR) cells showing rhodamine 123 fluorescence in
The RMA activity of various fatty acids, PEG monoesters and PEG diesters was determined by the method described in Example III. […]

KB 3-1 cells = assay: cells; assay type: cell-based; conditions: Homo sapiens, KB 3-1, 1 h, Table V, read-out: MFI (T/U), treated cells/untreated cells; for fold induction at 100 µg/mL: KB3-1, 100 μg/ml
Source text: ^b Mean Fluorescence Intensity resulting from intracellular rhodamine

Mdr1 protein = conditions: cited from earlier work
[3] = test system: multidrug resistant cells; conditions: cited from earlier work
in vitro [4] = conditions: human, k562/iii cells
Experimental: The chromogenic substrate, MTT (Sigma), was used to enumerate viable cells. […] For the Resistance Modification Index (RMI, Eliason et al., 1990), cells were prepared in microtiter plates and incubated with the indicated drugs and RMA. RMI was calculated as the IC50 of drug alone/IC50 of drug+RMA. The average RMI was calculated from at least three independent assays.
Growth is related as % relative to untreated cells.

[5] = In vivo tolerability of RMA; conditions: dosages achieving equivalent or superior reversal of MDR vs verapamil
in vitro [6] = conditions: human, kb 3-1 cells
in vitro [7] = conditions: human, kb 8-5 cells
in vitro [8] = conditions: human, kb 8-5-11 cells

For `CCCCCCCC/C=C\CCCCCCCC(=O)O` [Oleic Acid], the fold induction at 100 µg/mL (KB 8-5-11 cells [1]) was 1.7, the “Relative RMA Activity” value (KB 8-5-11 cells [2]; 100 μg/ml) was 2.7% and the fold induction at 100 µg/mL (KB 3-1 cells) was 2.1.

In the case of `COc1cc2c(c(OC)c1OC)-c1ccc(OC)c(=O)cc1[C@@H](NC(C)=O)CC2` [Colchicine, colchicine], the “competition for vinblastine binding” value (Mdr1 protein) is given as “does not compete for vinblastine binding” and the “interaction with identified drug-binding site on Mdr1 protein” value (Mdr1 protein) is given as “interact weakly with the identified drug-binding site on the Mdr1 protein”.

For `[N-]=[N+]=[N-]` [azide], the “RMA activity / reversal of multidrug resistance (literature)” value ([3]; in vitro) is given as “reverse multidrug resistance in vitro”.

In the case of `CCCCCCCCCCCCCCCCCC(=O)O` [Stearic Acid], the fold induction at 100 µg/mL (KB 8-5-11 cells [1]) is reported as 1.4, the “Relative RMA Activity” value (KB 8-5-11 cells [2]; 100 μg/ml) is reported as 2.1% and the fold induction at 100 µg/mL (KB 3-1 cells) is reported as 1.9.

In the case of `COc1ccc(CCN(C)CCCC(C#N)(c2ccc(OC)c(OC)c2)C(C)C)cc1OC` (stereo not shown) [Verapamil], the CC50 at 72 h (in vitro [4]) is listed as 38 µg/mL (≈ 83.6 µM), the in vivo tolerability [5] is listed as “marked toxicity” and the “effect against VP-16 multidrug resistance (literature)” value [3] is listed as “not effective against VP-16 multidrug resistance”. The “intracellular localization of doxorubicin with added agent (literature)” value ([3]; drug resistant cells) was “doxorubicin is localized mainly in the nucleus in drug resistant cells”, the CC50 at 72 h (in vitro [6]) was 40 µg/mL (≈ 88 µM) and the CC50 at 72 h (in vitro [7]) was 10 µg/mL (≈ 22 µM). The CC50 at 72 h (in vitro [8]) was 27 µg/mL (≈ 59.4 µM).

In the case of `CC/C=C\C/C=C\C/C=C\CCCCCCCC(=O)O` [Linolenic Acid], the fold induction at 10 µg/mL (KB 8-5-11 cells [1]; KB8-5-11, 10 μg/ml) is reported as 0.9, the fold induction at 100 µg/mL (KB 8-5-11 cells [1]) is reported as 1.7 and the “Relative RMA Activity” value (KB 8-5-11 cells [2]; 10 μg/ml) is reported as 1.3%. For the same compound, the “Relative RMA Activity” value (KB 8-5-11 cells [2]; 100 μg/ml) was 9.2%, the fold induction at 10 µg/mL (KB 3-1 cells; KB3-1, 10 μg/ml) was 1.2 and the fold induction at 100 µg/mL (KB 3-1 cells) was 1.7.
